Legend:
Assay type in all cases: in vivo
[1] = tested on: onion; assay: Growth, yield and yield attributes of onion (Test-3)
Description: The method of testing effect of additive 10 on different properties of soil was similar to the method as disclosed in Test-1 of Experiment-2, except time period which is 2 months instead of 9 months. The effect of additive was tested on soil using additive 10.
The effect of the additive 10, agricultural composition and agricultural composition along with fertilizer prepared in accordance with the present disclosure on the growth of onion was studied. Additive 10 prepared in Experiment 1 was used for the study. The study was conducted in the presence and in absence of the additive of the present disclosure to determine the effect of the additive on onion. Further, the effect of agricultural composition and agricultural composition along with fertilizer was studied. The study was carried out at a village in Bhavnagar District (Gujarat). The study was carried out in Two Plots: one plot, the additive of the present disclosure application and the other plot, urea application under Spacing of two rows and plants (15 cm×10 cm).
The effect of additive 10, agricultural composition and agricultural composition along with fertilizer on growth, yield and yield attributes of onion was carried and the comparative results obtained are summarized in Table-5a.

[2] = tested on: pigeon pea (Toor); assay: Comparative report of parameters for pigeon pea (Toor), Table 7 (protein, energy, ash, minerals); conditions: pigeon pea (Toor) trial
[3] = tested on: Pigeon pea crop; assay: Yield and yield attributes of pigeon pea (Test-5)
Description: The study was carried out with and without the additive of the present disclosure in different plots at a village in […] District (Gujarat). The Pigeon pea crop was planted in 90 cm between two rows and 20 cm of two plants under fields. The result pertaining to plant height, number of branches per plant, number of pods per plant, grain and haulm yield of pigeon pea crop recorded at harvest as influenced by additive of the present disclosure is summarized in Table-7a. Further, the effect of the plant growth regulator and agricultural composition and the comparative results obtained are summarized in Table-7b.

In the case of `NC(N)=O` [urea], the Ave. bulb weight [1] is reported as 51.50 g, the Bulb yield [1] is reported as 34.30 t/ha and the Leaf area [1] is reported as 930 cm². The Plant height [1] was 56.00 cm, the Energy [2] was 355.01 Kcal/100 gm and the “Total Ash” value ([2]; LOQ 0.1) was 3.94 gm/100 gm. The “Total Protein” value ([2]; LOQ 0.5) was 16.47 gm/100 gm, the “Calcium (as Ca)” value ([2]; LOQ 2.5) was 508.85 mg/kg and the “Iron (as Fe)” value ([2]; LOQ 2.5) was 11.48 mg/kg. The “Manganese (as Mn)” value ([2]; LOQ 2.5) was 4.71 mg/kg, the “Zinc (as Zn)” value ([2]; LOQ 2.5) was 10.99 mg/kg and the Grain yield [3] was 1060 kg/ha. The Haulm yield [3] was 1285 kg/ha, the “Number of branches per plant” value ([3]; at harvest) was 10.0 and the “Number of pods per plant” value ([3]; at harvest) was 172.0. The Plant height ([3]; at harvest) was 133.0 cm.
